Read-outs that look alike come from different tables or passages of the source.
Assays:
[1] = test system: Protease type-XXIV; experiment: Screening of globulin component-selective protease inhibitors (HSA substrate with/without γ-globulin); assay type: biochemical, Bacillus; conditions: additive concentration 1.0%; control 23.8
Description: Using protease type-XXIV (manufactured by Sigma-Aldrich Co.) having high reactivity with the HSA substrate solution, components that decrease the protease reaction with the above globulin substrate solutions were screened based on the HSA substrate solution.
In the R-1 proteolytic reagent, as the deoxycholic acid amide, bisgluconamidopropyldeoxycholamide was used; as the cholic acid amide, 3-[(3-cholamidopropyl)dimethvlammonio]propane sulfonic acid, 3-[(3-cholamidopropyl)dimethylammonio]-2-hydroxypropane sulfonic acid, or bisgluconamidopropylcholamide was used; as the quaternary ammonium salt, benzyltriethylan chloride or benzyltri-n-butylammonium chloride was used; and as quatemary ammonium salt-type cationic surfactant, lauryltrimethylammonium chloride or lauryldimethylamine oxide was used.
• 1. HSA substrate solution: Albumin Human: 40 mg/ml, GA %=10.5% [manufactured by Wako Pure Chemical Industries, Ltd., the albumin concentration in the substrate solution was assayed using an albumin assay kit (albumin II-HA Test Wako; manufactured by Wako Pure Chemical Industries, Ltd.). GA % was assayed using a glycated albumin analyzer (GAA-2000, manufactured by ARKRAY, Inc.). • 2. γ-globulin addition substrate solution, 17.0 mg/ml of γ-globulin [γ-Globulins Human (manufactured by Sigma-Aldrich Co.), Fructosamine value=34 μM] was added to the above HSA substrate solution. <Reaction Procedure>
Absorbances at a wavelength of 546 nm were measured before and after the addition of R-2. The difference of the two measurements was regarded as the absorbance change. The same procedure was conducted using distilled water instead of the substrate to prepare a blank sample. In addition, a reaction solution without the addition of the globulin-selective protease inhibitor was used as a control.
ΔA (HSA) was calculated by subtracting the absorbance change of the blank sample from the absorbance change obtained for the HSA substrate solution. ΔA(+γ-globulin) was calculated by subtracting the absorbance change of the blank sample from the absorbance change obtained for the substrate solution to which γ-globulin was added. Effect of γ-globulin addition=(ΔA(+γ-globulin)−ΔA(HSA))/ΔA(HSA)×100(%)

[2] = test system: Protease type-XXIV; assay type: biochemical, Bacillus
Description: 5 g/dl HSA (LOT38H7601; manufactured by Sigma-Aldrich Co.)
8 μl of a sample was added to 240 μl of the proteolytic reagent incubated at 37° C. […] A relative sensitivity for the experiment using the reagent containing a stabilizer to the experiment using the reagent not containing a stabilizer was calculated assuming that ΔA0obtained using the reagent not containing a stabilizer and used without storing is 100%.

[3] = test system: R-FOD-II; experiment: Stabilization of enzyme reacting at least with glycated amino acid; assay type: biochemical; conditions: for decrease in performance of glycated amino acid assay reagent: storage for four weeks at 37° C.; for stabilization effect on glycated amino acid assay reagent (relative sensitivity): without stabilizer 30%; for storage stability effect: stored in a liquid state in a refrigerator
Description: 8 μl of a sample was added to 240 μl of the proteolytic reagent incubated at 37° C. […] A relative sensitivity for the experiment using the reagent containing a stabilizer to the experiment using the reagent not containing a stabilizer was calculated assuming that ΔA0 obtained using the reagent not containing a stabilizer and used without storing is 100%.

[4] = test system: heat-stable type ascorbic acid oxidase (ASO-312); experiment: Effect of buffer agent types on stabilization of ascorbic acid oxidase ASO-312 in the presence of protease; assay type: biochemical; conditions: pH 8.0, stored two days at room temperature
Description: 1 ml of the above mixed reaction reagent is placed in a small test tube and preheated at 30° C. for five minutes, then 0.10 ml of an appropriately diluted enzyme solution is added. The mixture is stirred to initiate the reaction. After the reaction for exactly 5 minutes, 3.0 ml of 0.2 N hydrochloric acid aqueous solution is added to terminate the reaction. Absorbance (As) at a wavelength of 245 nm is measured. For the blank test, 1 ml of the above reaction solution is placed in a small test tube and preheated at 30° C. for five minutes, then 3.0 ml of 0.2 N hydrochloric acid aqueous solution is added to terminate the reaction. 0.10 ml of an appropriately diluted enzyme solution is added and the mixture is stirred to measure the absorbance (Ab) at a wavelength of 245 nm. The enzyme activity is determined from the difference (Ab-As) between the absorbance (As) after the enzyme reaction and the blank test absorbance (Ab). The amount of enzyme oxidizing 1 μmol of ascorbic acid into dehydroascorbic acid in one minute at 30° C. is defined as 1 U. The calculation formula is shown below. Activity (U/ml)=[(Ab−As)/10.0]×[⅕]×[4.10/0.10]×[1/B] • 10.0: Molecular absorbance coefficient (mM) of ascorbic acid at 245 nm under the conditions of pH 1.0. • 5: Reaction time (min) • 4.10: Total reaction solution (ml) • 0.10: Amount of enzyme sample solution used for the reaction • B: Dilution magnification of the enzyme solution
The above reaction solutions were prepared using various buffer agents. A portion of each solution was used as a control after measuring the ascorbic acid oxidase activity. The above-described <<Method for Measuring the Activity of Ascorbic Acid Oxidase (ASOx)>> was employed for the activity measurement. The remaining portion of reaction solutions was stored for two days at room temperature, and the activity was measured in the same manner. The ratio of the activity after storage for two days at room temperature to the activity of the control was calculated to compare the stability of ascorbic acid oxidases.

[5] = molecular target: T1, Ascorbic acid oxidase (ASO-311) (Cucurbita maxima, UniProt P24792); conditions: pH 8.0, stored two days at room temperature
T1 sequence (P24792 31-579): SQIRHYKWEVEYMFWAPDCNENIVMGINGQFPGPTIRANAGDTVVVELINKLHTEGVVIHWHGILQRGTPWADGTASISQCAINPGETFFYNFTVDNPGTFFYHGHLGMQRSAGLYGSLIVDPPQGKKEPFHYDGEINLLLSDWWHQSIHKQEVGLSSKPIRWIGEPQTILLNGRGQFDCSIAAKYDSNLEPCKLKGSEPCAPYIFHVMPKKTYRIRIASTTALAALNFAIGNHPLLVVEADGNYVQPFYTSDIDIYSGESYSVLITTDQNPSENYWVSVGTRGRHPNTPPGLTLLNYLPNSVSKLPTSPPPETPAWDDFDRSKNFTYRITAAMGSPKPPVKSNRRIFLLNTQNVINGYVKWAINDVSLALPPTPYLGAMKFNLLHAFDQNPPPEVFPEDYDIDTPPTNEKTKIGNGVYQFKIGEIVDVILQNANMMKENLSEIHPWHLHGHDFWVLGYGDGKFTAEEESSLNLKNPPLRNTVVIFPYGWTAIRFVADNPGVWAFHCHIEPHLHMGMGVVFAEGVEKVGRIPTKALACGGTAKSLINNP

[6] = stored at 37° C. for 24 hours, without stabilizer 60%, FIG. 5
[7] = stored at 37° C. for two days, FIG. 6

| Compound | Effect of γ-globulin (%) [1] [%] | stabilization effect on glycated amino acid assay reagent (relative sensitivity) [3, 7] | also measured |
| --- | --- | --- | --- |
| CC(CCC(=O)NCCC[N+](C)(C)CC(O)CS(=O)(=O)[O-])C1CCC2C3C(O)CC4CC(O)CCC4(C)C3CC(O)C12C (centres unmarked) [3-[3-cholamidopropyl)dimethylammonio]-2-hydroxypropane sulfonic acid] | 18.0 |  |  |
| C[C@H](CCC(=O)NCCC[N+](C)(C)CCCS(=O)(=O)[O-])[C@H]1CC[C@H]2[C@@H]3[C@H](O)C[C@@H]4C[C@H](O)CC[C@]4(C)[C@H]3C[C@H](O)[C@]12C [3-[(3-cholamidopropyl)dimethylammonio]propane sulfonic acid] | 17.9 |  |  |
| CCCC[N+](CCCC)(CCCC)Cc1ccccc1.[Cl-] [Benzyltributylammonium chloride] | 15.1 |  |  |
| CC[N+](CC)(CC)Cc1ccccc1.[Br-] [Benzyltriethylammonium bromide] | 22.9 |  |  |
| CC[N+](CC)(CC)Cc1ccccc1.[Cl-] [Benzyltriethylammonium chloride] | 16.5 |  |  |
| C[N+](C)(C)Cc1ccccc1.[Br-] [Benzyltrimethylammonium bromide] | 23.1 |  |  |
| C[N+](C)(C)Cc1ccccc1.[Cl-] [Benzyltrimethylammonium chloride] | 23.2 |  |  |
| C[C@H](CCC(=O)O)[C@H]1CC[C@H]2[C@@H]3[C@H](O)C[C@@H]4C[C@H](O)CC[C@]4(C)[C@H]3C[C@H](O)[C@]12C [Cholic acid] | 23.0 |  |  |
| C[S+](C)[O-] [DMSO, Dimethylsulfoxide] |  |  | decrease in performance of proteolytic reagent ([2]; storage for 4 weeks at 37° C.): almost no decrease in performance; decrease in performance of proteolytic reagent ([2]; stored at 37° C. for 24 hours, FIG. 5): almost no decrease in performance; stabilization effect on proteolytic reagent (relative sensitivity) [2, 6]: stabilization effect; storage stability effect ([2]; stored in a liquid state in a refrigerator): one year or more |
| CCO [EtOH, Ethanol] |  |  | stabilization effect on proteolytic reagent (relative sensitivity) [2]: stabilization effect |
| C[C@H](N)C(=O)O [L-alanine, L-Alanine] |  | stabilization effect | decrease in performance of glycated amino acid assay reagent [3]: almost no decrease in performance; storage stability effect [3]: one or more years |
| N[C@@H](CCC(=O)O)C(=O)O [L-glutamic acid, L-Glutamic acid] |  | stabilization effect |  |
| NC(=O)CC[C@H](N)C(=O)O [L-glutamine, L-Glutamine] |  | stabilization effect |  |
| NCCCC[C@H](N)C(=O)O [L-lysine, L-Lysine] |  | stabilization effect |  |
| O=C(O)[C@@H]1CCCN1 [L-proline, L-Proline] |  | stabilization effect |  |
| CC(C)[C@H](N)C(=O)O [L-valine, L-Valine] |  | stabilization effect |  |
| CCCCCCCCCCCC[N+](C)(C)[O-] [Lauryldimethylamine oxide] | 17.8 |  |  |

| Compound | Effect of γ-globulin (%) [1] [%] | stabilization effect on glycated amino acid assay reagent (relative sensitivity) [3, 7] | also measured |
| --- | --- | --- | --- |
| CCCCCCCCCCCC[N+](C)(C)C.[Cl-] [Lauryltrimethylammonium chloride] | 16.7 |  |  |
| C[C@H](CCC(=O)N(CCCNC(=O)[C@H](O)[C@@H](O)[C@H](O)[C@H](O)CO)CCCNC(=O)[C@H](O)[C@@H](O)[C@H](O)[C@H](O)CO)[C@H]1CC[C@H]2[C@@H]3[C@H](O)C[C@@H]4C[C@H](O)CC[C@]4(C)[C@H]3C[C@H](O)[C@]12C [N,N-Bis(3-D-gluconamidopropyl)cholamido] | 21.0 |  |  |
| C[C@H](CCC(=O)N(CCCNC(=O)[C@H](O)[C@@H](O)[C@H](O)[C@H](O)CO)CCCNC(=O)[C@H](O)[C@@H](O)[C@H](O)[C@H](O)CO)[C@H]1CC[C@H]2[C@@H]3CC[C@@H]4C[C@H](O)CC[C@]4(C)[C@H]3C[C@H](O)[C@]12C [N,N-Bis(3-D-gluconamidopropyl)deoxycholamido] | 19.9 |  |  |
| CCCCCCCCO[C@@H]1O[C@H](CO)[C@@H](O)[C@H](O)[C@H]1O [Octylglucoside] | 18.5 |  |  |
| O=P(O)(O)O [Phosphoric acid, phosphoric acid] |  |  | Relative activity (%) ASO-312 ([4]; Pronase): 108%; Relative activity (%) ASO-312 ([4]; Protease type XXIV): 86%; Relative activity (%) ASO-311 ([5]; Pronase): 88%; Relative activity (%) ASO-311 ([5]; Protease type XXIV): 77% |
| N.N.O=S(=O)(O)O [ammonium sulfate, Ammonium sulfate] |  | stabilization effect |  |
| [Ca+2].[Cl-].[Cl-] [calcium chloride, Calcium chloride] |  | stabilization effect | decrease in performance of proteolytic reagent [2]: almost no decrease in performance; stabilization effect on proteolytic reagent (relative sensitivity) [2]: stabilization effect; storage stability effect [2]: one year or more |
| [Cl-].[Cl-].[Mg+2] [magnesium chloride, Magnesium chloride] |  | stabilization effect |  |
| OC[C@@H](O)[C@@H](O)[C@H](O)[C@H](O)CO [mannitol, Mannitol] |  | stabilization effect |  |
| CNCC(=O)O [sarcosine, Sarcosine] |  | stabilization effect | decrease in performance of glycated amino acid assay reagent [3]: almost no decrease in performance; strength of stabilization effect [3, 7]: particularly strong stabilization effect; storage stability effect [3]: one or more years |
| [Cl-].[Na+] [sodium chloride, Sodium chloride] |  |  | stabilization effect on proteolytic reagent (relative sensitivity) [2, 6]: stabilization effect |
| OC[C@@H](O)[C@@H](O)[C@H](O)[C@@H](O)CO [sorbitol, Sorbitol] |  | stabilization effect |  |
| OC[C@H]1O[C@@](CO)(O[C@H]2O[C@H](CO)[C@@H](O)[C@H](O)[C@H]2O)[C@@H](O)[C@@H]1O [sucrose, Sucrose] |  | stabilization effect |  |
| OC[C@H]1O[C@H](O[C@H]2O[C@H](CO)[C@@H](O)[C@H](O)[C@H]2O)[C@H](O)[C@@H](O)[C@@H]1O [trehalose, Trehalose] |  | stabilization effect |  |
| Alkylbenzyldimethylammonium chloride | 23.2 |  |  |
| Triethanolamine lauryl sulfate [TEALS] |  |  | stabilization effect on proteolytic reagent (relative sensitivity) [2, 6]: stabilization effect |
